Source: the NIST ThermoML archive (doi:10.1016/j.fluid.2010.11.020)

Conditions: Liquid, Vibrating tube method

CCCCO [butan-1-ol]
Conditions | mass density [kg/m3]
293.15 K, 100 kPa | 809.5
293.15 K, 10000 kPa | 816.4
293.15 K, 20000 kPa | 822.9
293.15 K, 30000 kPa | 828.9
293.15 K, 40000 kPa | 834.5
293.15 K, 50000 kPa | 839.8
293.15 K, 60000 kPa | 844.7
293.15 K, 70000 kPa | 849.6
293.15 K, 80000 kPa | 854.2
293.15 K, 90000 kPa | 858.5
293.15 K, 100000 kPa | 862.9
293.15 K, 110000 kPa | 866.7
293.15 K, 120000 kPa | 870.8
293.15 K, 130000 kPa | 874.4
293.15 K, 140000 kPa | 878.1
303.15 K, 100 kPa | 802
303.15 K, 10000 kPa | 809.4
303.15 K, 20000 kPa | 816
303.15 K, 30000 kPa | 822.3
303.15 K, 40000 kPa | 828
303.15 K, 50000 kPa | 833.6
303.15 K, 60000 kPa | 838.7
303.15 K, 70000 kPa | 843.6
303.15 K, 80000 kPa | 848.3
303.15 K, 90000 kPa | 852.7
303.15 K, 100000 kPa | 857
303.15 K, 110000 kPa | 861.2
303.15 K, 120000 kPa | 865
303.15 K, 130000 kPa | 868.9
303.15 K, 140000 kPa | 872.6
313.15 K, 100 kPa | 794.1
313.15 K, 10000 kPa | 801.6
313.15 K, 20000 kPa | 809.1
313.15 K, 30000 kPa | 815.4
313.15 K, 40000 kPa | 821.4
313.15 K, 50000 kPa | 827.2
313.15 K, 60000 kPa | 832.6
313.15 K, 70000 kPa | 837.8
313.15 K, 80000 kPa | 842.6
313.15 K, 90000 kPa | 847.3
313.15 K, 100000 kPa | 851.6
313.15 K, 110000 kPa | 856
313.15 K, 120000 kPa | 860.1
313.15 K, 130000 kPa | 864
313.15 K, 140000 kPa | 867.9
323.15 K, 100 kPa | 786.5
323.15 K, 10000 kPa | 794.5
323.15 K, 20000 kPa | 801.7
323.15 K, 30000 kPa | 808.5
323.15 K, 40000 kPa | 815
323.15 K, 50000 kPa | 821
323.15 K, 60000 kPa | 826.5
323.15 K, 70000 kPa | 831.5
323.15 K, 80000 kPa | 836.3
323.15 K, 90000 kPa | 841.1
323.15 K, 100000 kPa | 845.8
323.15 K, 110000 kPa | 850.1
323.15 K, 120000 kPa | 854.3
323.15 K, 130000 kPa | 858.3
323.15 K, 140000 kPa | 862.1
333.15 K, 100 kPa | 778.3
333.15 K, 10000 kPa | 786.8
333.15 K, 20000 kPa | 794.6
333.15 K, 30000 kPa | 801.7
333.15 K, 40000 kPa | 808.4
333.15 K, 50000 kPa | 814.6
333.15 K, 60000 kPa | 820.3
333.15 K, 70000 kPa | 825.6
333.15 K, 80000 kPa | 830.8
333.15 K, 90000 kPa | 836
333.15 K, 100000 kPa | 840.5
333.15 K, 110000 kPa | 844.9
333.15 K, 120000 kPa | 849
333.15 K, 130000 kPa | 853.2
333.15 K, 140000 kPa | 857
343.15 K, 100 kPa | 769.9
343.15 K, 10000 kPa | 779
343.15 K, 20000 kPa | 787.1
343.15 K, 30000 kPa | 794.4
343.15 K, 40000 kPa | 801.3
343.15 K, 50000 kPa | 807.8
343.15 K, 60000 kPa | 813.6
343.15 K, 70000 kPa | 819.3
343.15 K, 80000 kPa | 824.6
343.15 K, 90000 kPa | 829.5
343.15 K, 100000 kPa | 834.4
343.15 K, 110000 kPa | 838.9
343.15 K, 120000 kPa | 843.3
343.15 K, 130000 kPa | 847.5
343.15 K, 140000 kPa | 851.6
353.15 K, 100 kPa | 760.9
353.15 K, 10000 kPa | 770.6
353.15 K, 20000 kPa | 779.2
353.15 K, 30000 kPa | 787.1
353.15 K, 40000 kPa | 794.3
353.15 K, 50000 kPa | 800.9
353.15 K, 60000 kPa | 807.7
353.15 K, 70000 kPa | 813.2
353.15 K, 80000 kPa | 818.9
353.15 K, 90000 kPa | 823.9
353.15 K, 100000 kPa | 828.8
353.15 K, 110000 kPa | 833.5
353.15 K, 120000 kPa | 838.1
353.15 K, 130000 kPa | 842.1
353.15 K, 140000 kPa | 846.5
363.15 K, 100 kPa | 751.9
363.15 K, 10000 kPa | 762.6
363.15 K, 20000 kPa | 771.7
363.15 K, 30000 kPa | 780.1
363.15 K, 40000 kPa | 787.4
363.15 K, 50000 kPa | 794.3
363.15 K, 60000 kPa | 800.9
363.15 K, 70000 kPa | 807
363.15 K, 80000 kPa | 812.5
363.15 K, 90000 kPa | 817.9
363.15 K, 100000 kPa | 822.9
363.15 K, 110000 kPa | 827.7
363.15 K, 120000 kPa | 832.4
363.15 K, 130000 kPa | 836.8
363.15 K, 140000 kPa | 841
373.15 K, 100 kPa | 742.4
373.15 K, 10000 kPa | 753.4
373.15 K, 20000 kPa | 763.3
373.15 K, 30000 kPa | 772.2
373.15 K, 40000 kPa | 780
373.15 K, 50000 kPa | 787.2
373.15 K, 60000 kPa | 793.8
373.15 K, 70000 kPa | 800.2
373.15 K, 80000 kPa | 805.8
373.15 K, 90000 kPa | 811.5
373.15 K, 100000 kPa | 817
373.15 K, 110000 kPa | 821.9
373.15 K, 120000 kPa | 826.3
373.15 K, 130000 kPa | 831
373.15 K, 140000 kPa | 835.3
383.15 K, 100 kPa | 732.2
383.15 K, 10000 kPa | 744.7
383.15 K, 20000 kPa | 754.6
383.15 K, 30000 kPa | 764.3
383.15 K, 40000 kPa | 772.2
383.15 K, 50000 kPa | 779.6
383.15 K, 60000 kPa | 786.6
383.15 K, 70000 kPa | 793.2
383.15 K, 80000 kPa | 799.1
383.15 K, 90000 kPa | 804.9
383.15 K, 100000 kPa | 810.3
383.15 K, 110000 kPa | 815.4
383.15 K, 120000 kPa | 820.4
383.15 K, 130000 kPa | 825
383.15 K, 140000 kPa | 829.6
393.15 K, 10000 kPa | 735.3
393.15 K, 20000 kPa | 746.4
393.15 K, 30000 kPa | 755.9
393.15 K, 40000 kPa | 764.9
393.15 K, 50000 kPa | 772.3
393.15 K, 60000 kPa | 779.6
393.15 K, 70000 kPa | 786.3
393.15 K, 80000 kPa | 792.8
393.15 K, 90000 kPa | 798.8
393.15 K, 100000 kPa | 804.3
393.15 K, 110000 kPa | 809.7
393.15 K, 120000 kPa | 814.7
393.15 K, 130000 kPa | 819.3
393.15 K, 140000 kPa | 823.9
403.15 K, 10000 kPa | 725.6
403.15 K, 20000 kPa | 737.3
403.15 K, 30000 kPa | 747.7
403.15 K, 40000 kPa | 756.9
403.15 K, 50000 kPa | 765.4
403.15 K, 60000 kPa | 772.8
403.15 K, 70000 kPa | 779.9
403.15 K, 80000 kPa | 786.5
403.15 K, 90000 kPa | 792.6
403.15 K, 100000 kPa | 798.5
403.15 K, 110000 kPa | 803.9
403.15 K, 120000 kPa | 809.1
403.15 K, 130000 kPa | 814.1
403.15 K, 140000 kPa | 819.3
